Assay [1] has as its system human embryonic kidney 293 cells. Description: 293-NIK TK Renilla Luciferase reporter (general measure of cell viability). Format: cell-based. From the text: (1) The first assay was used to profile whether a test compound can inhibit the NF-kB signally through NIK inhibition without affecting cell viability. In this assay, human embryonic kidney 293 cells was stably transfected with a tetracycline-inducible NIK DNA construct containing a cytomegalovirus promoter plus two reporter DNA constructs. One reporter encoded firefly luciferase under the control of three repeats of an NF-kB response element from the ELAM-1 gene and reflects the level of NIK activity in the cells, whereas the other reporter constitutively expressed Renilla luciferase under the control of the herpes simplex virus thymidine kinase promoter and served as a general measure of cell viability. Cells were incubated with different concentrations of compounds (0.2% DMSO final) in medium containing 1 ug/mL doxycycline and 10% tet-system approved fetal bovine serum (Clontech) for 24 hours, after which the reporters' signals were detected using the Dual Glo luciferase detection system (Promega) according to the vendor's protocol. The compounds listed in Table 1 have the corresponding inhibitory value (IC50 in micromolar) for 293-NIK NF-kB-Luciferase activity (values for compounds are presented in the same order as found in Table 1): na, 0.059, na, na, na, 0.105, 0.027, na, 20, 1.2, na, 1.8, 0.0231, 0.879, 0.0361, 0.582, na, 0.142, na, 0.403, 0.059, 0.0331, na, na, 0.0573, 1.5, na, na, 0.0722, na, na, 0.589, 12.7, 3.7, 14.9, na, 0.707, 1, 0.0311, 0.332, 0.309, 0.0142, 0.051, 2.8, 0.129, na, na, 1.5, na, na, na, 1.3, 0.062, 20, 0.31, 0.104, 0.091, 0.037, 0.085, 0.279, na, 0.305, 0.064, 0.332, 0.133, 0.168, 0.217, 0.553, na and na.
The compounds in listed in Table 1 have the corresponding inhibitory value (IC50 in micromolar) for 293-NIK TK Renilla Luciferase activity: (values for compounds are presented in the same order as found in Table 1): 6.4, 3.6, 20, na, 1.6, 9.3, 18.5, na, na, 2.6, na, na, na, na, na, na, na, na, na, na, na, na, na, na, na, na, na, na, na, na, na, na, na, na, na, na, na, na, na, na, na, na, na, na, na, na, na, >20, na, na, na, 20, >20, 17, 1.3, 15.6, 0.967, 2.7, 11.2, 5.1, na, 20, 20, 20, 20, 20, 17.6, 20, na and na.
A general note: Reporter assays use an easily measured gene product as a stand-in for the process of interest.

The subject of assay [2] is NF-kB signaling through NIK in human embryonic kidney 293 cells. Description: 293-NIK NF-kB-Luciferase reporter assay. The format is cell-based. The essentials: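 HEK293 cells stably carrying tetracycline-inducible NIK plus NF-kB (ELAM-1 element) firefly luciferase and constitutive TK-Renilla viability reporter. Compounds (0.2% DMSO) incubated 24 h with 1 ug/mL doxycycline; Dual Glo luminescence read, IC50 from firefly signal.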

The test system of assay [3] is p52 (NF-kB2) nuclear translocation in HeLa cells. Nature of the assay: NIK p52 Translocation Assay (non-classical NF-kB signaling). Format: cell-based. To be noted: Homo sapiens. In outline:
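HeLa cells in 10% FBS medium were exposed to compound (0.2% DMSO final) and stimulated with 100 ng/mL anti-lymphotoxin β receptor antibody for 5 h. Fixed cells were immunostained for p52 with DRAQ5 counterstain and imaged by high-content imaging. IC50 from nuclear/cytoplasmic p52 signal ratio vs concentration.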

Assay [4] has as its target T1, nuclear factor-kappa B (NF-kB)-inducing kinase (NIK) (Homo sapiens, UniProt Q99558).
T1 construct: made in house; host or cells: baculovirus-infected insect cells
Nature of the assay: NIK Enzyme Inhibition Assay (Transcreener ADP assay). The format is biochemical.

In assay [5] the test system is REL-A (p65) nuclear translocation in HeLa cells. Description: NIK RelA Translocation Assay (classical NF-kB signaling). The format is cell-based. To be noted: Homo sapiens. In outline:
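HeLa cells in 10% FBS medium were preincubated 4.5 h with compound (0.2% DMSO final), then stimulated with 10 ng/mL TNF-α for 30 min. After fixation, anti-REL-A (p65) immunostaining and DRAQ5 nuclear stain, high-content imaging gave the nuclear/cytoplasmic intensity ratio; IC50 from signal versus concentration.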

[6] abbreviates: HEK293, comparative data, Tables 16A-16D, read-out: 293-NIK TK Renilla Luciferase (IC50).
The mark [7] stands for this setting: HEK293, comparative data, Tables 16A-16D, read-out: 293-NIK NF-kB-Luciferase (IC50).
[8] abbreviates: HeLa, comparative data, Tables 16A-16D, read-out: NIK p52 Translocation (IC50).
The mark [9] stands for this setting: comparative data, Tables 16A-16D, read-out: NIK ADP (Ki).
Where [10] appears, read: HeLa, comparative data, Tables 16A-16D, read-out: NIK RelA Translocation (IC50).
Setting [11] is: HEK293, 293 cells, constitutive Renilla luciferase, 24 hours, read-out: inhibitory value (IC50) for 293-NIK TK Renilla Luciferase activity.
The mark [12] stands for this setting: HeLa cells, 100 ng/mL anti-lymphotoxin beta receptor antibody, 5 hours, read-out: inhibitory value (IC50) for NIK p52 Translocation Assay.
Setting [13] is: HeLa cells, compounds 4.5 hours, 10 ng/mL TNF-α 30 minutes, read-out: inhibitory value (IC50) for NIK RelA Translocation Assay.
[14] abbreviates: HEK293, 293 cells with tetracycline-inducible NIK, 1 ug/mL doxycycline, 24 hours, read-out: inhibitory value (IC50) for 293-NIK NF-kB-Luciferase activity.
Setting [15] is: purified NIK 0.2-1 nM, 10 uM ATP, fluorescence polarization, Morrison's quadratic equation, read-out: inhibitory value (Ki) for NIK.

Molecules are shown by their SMILES. Read-outs that look alike come from different tables or passages of the source.

T1 sequence (Q99558 whole entry): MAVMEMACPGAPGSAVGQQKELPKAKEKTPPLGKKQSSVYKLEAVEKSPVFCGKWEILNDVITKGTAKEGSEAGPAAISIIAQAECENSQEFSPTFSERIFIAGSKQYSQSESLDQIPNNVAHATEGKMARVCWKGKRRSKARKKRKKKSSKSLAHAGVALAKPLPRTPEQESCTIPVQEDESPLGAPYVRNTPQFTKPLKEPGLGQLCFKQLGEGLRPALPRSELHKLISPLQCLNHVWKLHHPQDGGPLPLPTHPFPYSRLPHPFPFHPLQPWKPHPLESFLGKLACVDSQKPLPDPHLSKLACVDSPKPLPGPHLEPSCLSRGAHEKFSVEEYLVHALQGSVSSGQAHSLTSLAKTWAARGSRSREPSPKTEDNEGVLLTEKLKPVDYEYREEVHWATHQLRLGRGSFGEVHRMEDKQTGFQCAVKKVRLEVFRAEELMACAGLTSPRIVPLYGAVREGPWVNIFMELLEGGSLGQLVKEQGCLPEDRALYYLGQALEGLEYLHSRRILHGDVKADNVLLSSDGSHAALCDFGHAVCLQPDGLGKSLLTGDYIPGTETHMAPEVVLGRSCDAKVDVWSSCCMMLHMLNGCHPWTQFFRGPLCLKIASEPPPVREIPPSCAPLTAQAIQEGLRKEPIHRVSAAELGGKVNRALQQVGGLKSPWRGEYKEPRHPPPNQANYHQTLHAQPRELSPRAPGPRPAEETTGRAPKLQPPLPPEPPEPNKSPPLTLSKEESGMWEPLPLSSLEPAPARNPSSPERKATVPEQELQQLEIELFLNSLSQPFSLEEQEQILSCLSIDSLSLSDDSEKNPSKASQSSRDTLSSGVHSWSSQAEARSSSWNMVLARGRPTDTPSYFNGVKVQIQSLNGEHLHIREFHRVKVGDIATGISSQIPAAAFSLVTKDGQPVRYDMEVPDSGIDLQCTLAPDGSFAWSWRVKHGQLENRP

The IC50 is the concentration at which inhibition is half-maximal. In general, Ki refers to the equilibrium dissociation constant of an inhibitor or competing ligand from its target. Take `CN(C)C(=O)c1nn(-c2ccnc(N)n2)c2cc(C#CC(C)(O)c3ncco3)ccc12` (stereo not drawn) [1-(2-aminopyrimidin-4-yl)-6-(3-hydroxy-3-(oxazol-2-yl)but-1-ynyl)-N,N-dimethyl-1H-indazole-3-carboxamide]: the IC50 in assay [1] (setting [6]) was 583 nM; in assay [2] (setting [7]), 51 nM; in assay [3] (setting [8]), 346 nM; in assay [5] (setting [10]), greater than 20000 nM. Besides, in assay [4] (setting [9]), the Ki was found to be 0.2 nM.
With `CC(O)(C#Cc1ccc2ncn(-c3ccnc(N)n3)c2c1)c1nccs1` (stereo not drawn) [4-(1-(2-aminopyrimidin-4-yl)-1H-benzo[d]imidazol-6-yl)-2-(thiazol-2-yl)but-3-yn-2-ol], the IC50 was 4900 nM in assay [1] (setting [6]), 27 nM in assay [2] (setting [7]), 70 nM in assay [3] (setting [8]) and greater than 20000 nM in assay [5] (setting [10]). Further, the inhibitory constant (Ki) in assay [4] (setting [9]) is 0.3 nM.
As for `CC(O)(C#Cc1ccc2cnn(-c3ccnc(N)n3)c2c1)c1ncco1` (stereo not drawn) [4-(1-(2-aminopyrimidin-4-yl)-1H-indazol-6-yl)-2-(oxazol-2-yl)but-3-yn-2-ol], the IC50 is 514 nM in assay [1] (setting [6]), 36 nM in assay [2] (setting [7]), 77 nM in assay [3] (setting [8]) and greater than 20000 nM in assay [5] (setting [10]). The Ki in assay [4] (setting [9]) amounted to 0.3 nM.
As to `Cc1nn(-c2ccnc(N)n2)c2cc(C#CC(C)(O)c3nccs3)ccc12` (stereo not drawn) [4-(1-(2-aminopyrimidin-4-yl)-3-methyl-1H-indazol-6-yl)-2-(thiazol-2-yl)but-3-yn-2-ol], the IC50 was 1200 nM in assay [1] (setting [6]), 11 nM in assay [2] (setting [7]), 222 nM in assay [3] (setting [8]) and greater than 20000 nM in assay [5] (setting [10]). Besides, the Ki in assay [4] (setting [9]) is 0.1 nM.
On the same counts, the results for `CC(O)(C#Cc1ccc2c(c1)N(c1ccnc(N)n1)CC2)c1nccs1` (stereo not drawn) [4-(1-(2-aminopyrimidin-4-yl)indolin-6-yl)-2-(thiazol-2-yl)but-3-yn-2-ol, reference compound] are 3900 nM, 126 nM, 862 nM, greater than 20000 nM and 2.7 nM.
Take `CC(O)(C#Cc1ccc2cnn(-c3ccnc(N)n3)c2c1)c1nccs1` (stereo not drawn) [Example T1-1, 4-(1-(2-aminopyrimidin-4-yl)-1H-indazol-6-yl)-2-(thiazol-2-yl)but-3-yn-2-ol]: the IC50 is 6400 nM in assay [1] (setting [11]), 326 nM in assay [3] (setting [12]) and 326 nM in assay [5] (setting [13]).
As to `CC(O)(C#Cc1ccc2cnn(-c3nc(N)ncc3Cl)c2c1)c1nccs1` (stereo not drawn) [Example T1-6, 4-(1-(2-amino-5-chloro-pyrimidin-4-yl)-1H-indazol-6-yl)-2-(thiazol-2-yl)but-3-yn-2-ol], the IC50 in assay [1] (setting [11]) turned out to be 9300 nM; in assay [2] (setting [14]), 105 nM; in assay [3] (setting [12]), 218 nM; in assay [5] (setting [13]), 218 nM. Moreover, in assay [4] (setting [15]), the Ki is 0.14 nM.
As for `CC(O)(C#Cc1ccc2ncn(-c3ccnc(N)n3)c2c1)c1nccs1` (stereo not drawn) [Example T1-7, 4-(1-(2-aminopyrimidin-4-yl)-1H-benzo[d]imidazol-6-yl)-2-(thiazol-2-yl)but-3-yn-2-ol], the half-inhibitory concentration (IC50) in assay [1] (setting [11]) was found to be 18500 nM; in assay [2] (setting [14]), 27 nM; in assay [3] (setting [12]), 70 nM; in assay [5] (setting [13]), 70 nM. For the same compound, the inhibition constant (Ki) in assay [4] (setting [15]) worked out at 0.28 nM.
In the case of `Cc1nc2ccc(C#CC(C)(O)c3nccs3)cc2n1-c1ncnc(N)n1` (stereo not drawn) [Example T1-53, 4-(1-(4-amino-1,3,5-triazin-2-yl)-2-methyl-1H-benzo[d]imidazol-6-yl)-2-(thiazol-2-yl)but-3-yn-2-ol], the IC50 is greater than 20000 nM in assay [1] (setting [11]), 62 nM in assay [2] (setting [14]), 479 nM in assay [3] (setting [12]) and 447 nM in assay [5] (setting [13]). The Ki in assay [4] (setting [15]) amounted to 0.4 nM.
Turning to `Cc1nn(-c2ccnc(N)n2)c2cc(C#C[C@@](C)(O)c3nccs3)c(F)cc12` [Example T1-55, (R)-4-(1-(2-aminopyrimidin-4-yl)-5-fluoro-3-methyl-1H-indazol-6-yl)-2-(thiazol-2-yl) but-3-yn-2-ol], the IC50 in assay [1] (setting [11]) was 1300 nM; in assay [2] (setting [14]), 310 nM; in assay [3] (setting [12]), 243 nM; in assay [5] (setting [13]), 89 nM. Besides, the Ki in assay [4] (setting [15]) was determined as 0.2 nM.
`Cc1cnc(C(C)(O)C#Cc2ccc3c(C)nn(-c4ccnc(N)n4)c3c2)s1` (stereo not drawn) [Example T1-56, 4-(1-(2-aminopyrimidin-4-yl)-3-methyl-1H-indazol-6-yl)-2-(5-methylthiazol-2-yl)but-3-yn-2-ol]: the IC50 came to 15600 nM in assay [1] (setting [11]), 104 nM in assay [2] (setting [14]), 747 nM in assay [3] (setting [12]) and 479 nM in assay [5] (setting [13]). For the same compound, the inhibition constant Ki in assay [4] (setting [15]) stood at 1.6 nM.
On the same counts, the results for `Cc1nc(C(C)(O)C#Cc2ccc3c(C)nn(-c4ccnc(N)n4)c3c2)no1` (stereo not drawn) [Example T1-57, 4-(1-(2-aminopyrimidin-4-yl)-3-methyl-1H-indazol-6-yl)-2-(5-methyl-1,2,4-oxadiazol-3-yl)but-3-yn-2-ol] are 967 nM, 91 nM, 1000 nM, 489 nM and 2 nM.
In the case of `Cc1cc(C(C)(O)C#Cc2ccc3c(C(=O)N(C)C)nn(-c4ccnc(N)n4)c3c2)no1` (stereo not drawn) [Example T1-59, 1-(2-aminopyrimidin-4-yl)-6-(3-hydroxy-3-(5-methyl-isoxazol-3-yl)but-1-ynyl)-N,N-dimethyl-1H-indazole-3-carboxamide], the IC50 came out at 11200 nM in assay [1] (setting [11]), 85 nM in assay [2] (setting [14]), 1900 nM in assay [3] (setting [12]) and 747 nM in assay [5] (setting [13]). Moreover, the inhibition constant Ki in assay [4] (setting [15]) worked out at 0.49 nM.
The like results for `Cc1cc(C(C)(O)C#Cc2ccc3nc(C4CC4)n(-c4ncnc(N)n4)c3c2)no1` (stereo not drawn) [Example T1-60, 4-(1-(4-amino-1,3,5-triazin-2-yl)-2-cyclopropyl-1H-benzo [d]imidazol-6-yl)-2-(5-methyl-isoxazol-3-yl)but-3-yn-2-ol] were, in that order, 5100 nM, 279 nM, 552 nM, 1000 nM and 2.2 nM.
As for `Cc1cc(C(C)(O)C#Cc2ccc3nc(C)n(-c4ncnc(N)n4)c3c2)no1` (stereo not drawn) [Example T1-64, 4-(1-(4-amino-1,3,5-triazin-2-yl)-2-methyl-1H-benzo[d]imidazol-6-yl)-2-(5-methyl-isoxazol-3-yl)but-3-yn-2-ol], the values for the IC50 in assay [1] (setting [11]), in assay [2] (setting [14]) and in assay [5] (setting [13]) were no less than 20000 nM, 332 nM and 2100 nM, respectively. Moreover, the Ki in assay [4] (setting [15]) was found to be 5 nM.
